One assay has as its system DLD-1 BRCA2−/− cells. Put plainly: Growth delay assay. The format is cell-based, Human. The note with it: pH 7.4, BRCA (−/−) DLD-1, 96 h. The protocol:
Cells were plated in 96 well black walled-clear bottom plates (Griener), DLD-1 WT cells at 2500 cells per well, DLD-1 BRCA2−/− at 5000 cells per well, in growth media containing 10% FBS. Cells were allowed to adhere at room temperature for 60 minutes before returning to a 37 C, 5% CO2 incubator. After 24 hours, media was removed and replaced with fresh growth media containing various drug concentrations. Each drug concentration was added in triplicate. Non-drug treated controls contained growth media only. Cells were returned to the incubator. Ninety-six hours after addition of drug, cells were fixed with 4% paraformaldehyde for 20 minutes and stained with Hoechst at 1 ug/mL. The plates were imaged on a Cytation 5 auto imager (BioTek) and cells were counted using CellProfiler (http://cellprofiler.org). The percent cell growth delay was calculated and data plotted using GraphPad Prism.

Another assay has as its target PARP (Homo sapiens, UniProt P09874). Put plainly: Enzymatic Assay 2: HT Universal Chemiluminescent PARP Assay of cleaved compounds.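 Note: PARP reaction with activated DNA run 1 h at room temperature, product detected via streptavidin-HRP and luminescence endpoint reading on a plate reader.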 Conditions: read-out: IC50 Enzymatic Assay 2; Examples cleaved per Example A (crude cleavage solution); R^8H starting materials as such.

Molecules are shown by their SMILES. Residues, ends and D or L forms follow the SMILES beside them. *: point of attachment. X8 = Cn1ncnc1[C@H]1c2n[nH]c(=O)c3cc(F)cc(c23)N(CNC(=O)OCC2(S*)CCC2)[C@@H]1c1ccc(F)cc1

Chain of PARP (P09874 whole entry): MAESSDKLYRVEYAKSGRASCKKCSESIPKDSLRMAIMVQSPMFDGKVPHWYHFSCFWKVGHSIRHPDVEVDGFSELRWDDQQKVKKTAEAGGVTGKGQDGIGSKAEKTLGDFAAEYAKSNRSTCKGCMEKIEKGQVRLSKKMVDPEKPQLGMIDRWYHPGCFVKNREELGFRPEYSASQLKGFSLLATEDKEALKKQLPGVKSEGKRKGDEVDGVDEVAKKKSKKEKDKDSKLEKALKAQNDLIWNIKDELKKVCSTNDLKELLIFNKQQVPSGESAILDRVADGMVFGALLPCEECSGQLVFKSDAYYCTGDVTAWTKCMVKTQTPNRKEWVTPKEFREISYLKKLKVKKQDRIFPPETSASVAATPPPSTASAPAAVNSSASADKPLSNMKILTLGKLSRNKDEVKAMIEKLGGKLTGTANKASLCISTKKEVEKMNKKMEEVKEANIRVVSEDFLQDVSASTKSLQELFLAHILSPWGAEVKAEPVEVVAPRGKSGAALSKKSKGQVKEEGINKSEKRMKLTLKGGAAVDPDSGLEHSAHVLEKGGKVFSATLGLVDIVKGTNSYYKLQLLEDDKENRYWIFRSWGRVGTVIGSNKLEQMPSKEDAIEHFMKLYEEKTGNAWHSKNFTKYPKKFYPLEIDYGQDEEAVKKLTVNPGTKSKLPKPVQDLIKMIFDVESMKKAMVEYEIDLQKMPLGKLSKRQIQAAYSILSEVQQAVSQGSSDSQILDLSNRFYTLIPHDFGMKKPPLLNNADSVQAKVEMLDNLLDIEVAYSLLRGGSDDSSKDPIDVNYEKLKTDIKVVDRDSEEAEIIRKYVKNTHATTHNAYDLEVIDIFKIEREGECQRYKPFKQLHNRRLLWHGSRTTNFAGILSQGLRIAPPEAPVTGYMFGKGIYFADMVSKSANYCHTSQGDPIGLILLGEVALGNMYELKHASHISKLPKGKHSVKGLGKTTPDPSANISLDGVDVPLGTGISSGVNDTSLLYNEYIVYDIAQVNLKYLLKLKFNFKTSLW
Method for PARP: An equal volume of 1×PARP cocktail containing activated DNA was added to each well and the reaction was incubated for one hour at room temperature. The wells were washed twice with 1×PBS+0.1% Triton X-100 and twice with PBS. 50 ul/well of diluted streptavidin-HRP was added and the wells were incubated for one hour at room temperature. The wells were washed twice with 1×PBS+0.1% Triton X-100 and washed twice with PBS. The liquid was 5 removed, 100 ul/well 1:1 PeroxyGlow A/PeroxyGlow B was added and the chemiluminescent readings were measured on a BioTek Cytation 5 plate reader using the luminescence fiber endpoint.

Take `CC(C)C[C@H](NC(=O)[C@H](Cc1ccc(O)cc1)NC(=O)[C@H](C)NC(=O)[C@H](CCCNC(=N)N)NC(=O)[C@H](Cc1c[nH]c2ccccc12)NC(=O)[C@@H]1CCCN1C(=O)[C@H](CC(N)=O)NC(=O)[C@H](CCC(N)=O)NC(=O)[C@H](CC(=O)O)NC(=O)[C@H](CC(=O)O)NC(=O)[C@H](C)N)C(=O)N[C@@H](CC(=O)O)C(=O)N[C@@H](CC(C)C)C(=O)N[C@@H](CC(C)C)C(=O)N[C@@H](Cc1ccccc1)C(=O)N1CCC[C@H]1C(=O)N[C@H](C(=O)N[C@@H](CC(=O)O)C(=O)N[C@H](C(=O)N[C@@H](CC(C)C)C(=O)N[C@@H](CC(C)C)C(=O)N[C@@H](CC(C)C)C(=O)N[C@@H](CC(=O)O)C(=O)N[C@@H](CC(C)C)C(=O)N[C@@H](CC(C)C)C(=O)N[C@@H](Cc1c[nH]c2ccccc12)C(=O)N[C@@H](CSSCCOC(=O)NCN1c2cc(F)cc3c(=O)[nH]nc(c23)[C@H](c2ncnn2C)[C@H]1c1ccc(F)cc1)C(=O)NCC(=O)O)[C@@H](C)O)[C@@H](C)O` [Example 16]: the results for the IC50 in the assay on DLD-1 BRCA2−/− cells and on PARP were 84 nM and 0.61 nM, respectively.
`CC(C)C[C@H](NC(=O)[C@H](Cc1ccc(O)cc1)NC(=O)[C@H](C)NC(=O)[C@H](CCCNC(=N)N)NC(=O)[C@H](Cc1c[nH]c2ccccc12)NC(=O)[C@@H]1CCCN1C(=O)[C@H](CC(N)=O)NC(=O)[C@H](CCC(N)=O)NC(=O)[C@H](CC(=O)O)NC(=O)[C@H](CC(=O)O)NC(=O)[C@H](C)N)C(=O)N[C@@H](CC(=O)O)C(=O)N[C@@H](CC(C)C)C(=O)N[C@@H](CC(C)C)C(=O)N[C@@H](Cc1ccccc1)C(=O)N1CCC[C@H]1C(=O)N[C@H](C(=O)N[C@@H](CC(=O)O)C(=O)N[C@H](C(=O)N[C@@H](CC(C)C)C(=O)N[C@@H](CC(C)C)C(=O)N[C@@H](CC(C)C)C(=O)N[C@@H](CC(=O)O)C(=O)N[C@@H](CC(C)C)C(=O)N[C@@H](CC(C)C)C(=O)N[C@@H](Cc1c[nH]c2ccccc12)C(=O)N[C@@H](CC(=O)O)C(=O)N[C@@H](C)C(=O)N[C@@H](CC(=O)O)C(=O)N[C@@H](CCC(=O)O)C(=O)N[C@@H](CSSCCOC(=O)NCN1c2cc(F)cc3c(=O)[nH]nc(c23)[C@H](c2ncnn2C)[C@H]1c1ccc(F)cc1)C(=O)NCC(=O)O)[C@@H](C)O)[C@@H](C)O` [Example 17]: the IC50 stood at 50 nM in the assay with DLD-1 BRCA2−/− cells and 0.41 nM on PARP.
Turning to `CC[C@H](C)[C@H](NC(=O)[C@@H]1CCCN1C(=O)[C@H](CC(N)=O)NC(=O)[C@H](CCC(N)=O)NC(=O)[C@H](CCC(=O)O)NC(=O)[C@H](C)N)C(=O)N[C@@H](Cc1ccc(O)cc1)C(=O)N[C@@H](Cc1c[nH]c2ccccc12)C(=O)N[C@@H](C)C(=O)N[C@@H](CCCNC(=N)N)C(=O)N[C@@H](Cc1ccc(O)cc1)C(=O)N[C@@H](C)C(=O)N[C@@H](CC(=O)O)C(=O)N[C@@H](Cc1c[nH]c2ccccc12)C(=O)N[C@@H](CC(C)C)C(=O)N[C@@H](Cc1ccccc1)C(=O)N[C@H](C(=O)N[C@H](C(=O)N1CCC[C@H]1C(=O)N[C@@H](CC(C)C)C(=O)N[C@@H](CC(C)C)C(=O)N[C@@H](CC(C)C)C(=O)N[C@@H](CC(C)C)C(=O)N[C@@H](CC(=O)O)C(=O)N[C@@H](CC(C)C)C(=O)N[C@@H](C)C(=O)N[C@@H](CC(C)C)C(=O)N[C@@H](CC(C)C)C(=O)N[C@H](C(=O)N[C@@H](CC(=O)O)C(=O)N[C@@H](C)C(=O)N[C@@H](CC(=O)O)C(=O)N[C@@H](CCC(=O)O)C(=O)N[C@@H](CSSC1(COC(=O)NCN2c3cc(F)cc4c(=O)[nH]nc(c34)[C@H](c3ncnn3C)[C@H]2c2ccc(F)cc2)CCC1)C(=O)NCC(=O)O)C(C)C)[C@@H](C)O)[C@@H](C)O` [Example 39] (H-AEQNPIYWARYADWLFTTPLLLLDLALLVDADEC(X8)G-OH; N-terminus and C-terminus assumed), the IC50 in the assay with DLD-1 BRCA2−/− cells was 104 nM; at PARP, 3 nM.
Turning to `CC(C)C[C@H](NC(=O)[C@H](Cc1ccc(O)cc1)NC(=O)[C@H](C)NC(=O)[C@H](CCCNC(=N)N)NC(=O)[C@H](Cc1c[nH]c2ccccc12)NC(=O)[C@@H]1CCCN1C(=O)[C@H](CC(N)=O)NC(=O)[C@H](CCC(N)=O)NC(=O)[C@H](CC(=O)O)NC(=O)[C@H](CC(=O)O)NC(=O)[C@H](C)N)C(=O)N[C@@H](CC(=O)O)C(=O)N[C@@H](CC(C)C)C(=O)N[C@@H](CC(C)C)C(=O)N[C@@H](Cc1ccccc1)C(=O)N1CCC[C@H]1C(=O)N[C@H](C(=O)N[C@@H](CC(=O)O)C(=O)N[C@H](C(=O)N[C@@H](CC(C)C)C(=O)N[C@@H](CC(C)C)C(=O)N[C@@H](CC(C)C)C(=O)N[C@@H](CC(=O)O)C(=O)N[C@@H](CC(C)C)C(=O)N[C@@H](CC(C)C)C(=O)N[C@@H](Cc1c[nH]c2ccccc12)C(=O)N[C@@H](CSS[C@H](C)COC(=O)NCN1c2cc(F)cc3c(=O)[nH]nc(c23)[C@H](c2ncnn2C)[C@H]1c1ccc(F)cc1)C(=O)NCC(=O)O)[C@@H](C)O)[C@@H](C)O` [Example 40], the IC50 was 64 nM in the assay with DLD-1 BRCA2−/− cells and 1.1 nM on PARP.
The corresponding values for `CC(C)C[C@H](NC(=O)[C@H](Cc1ccc(O)cc1)NC(=O)[C@H](C)NC(=O)[C@H](CCCNC(=N)N)NC(=O)[C@H](Cc1c[nH]c2ccccc12)NC(=O)[C@@H]1CCCN1C(=O)[C@H](CC(N)=O)NC(=O)[C@H](CCC(N)=O)NC(=O)[C@H](CC(=O)O)NC(=O)[C@H](CC(=O)O)NC(=O)[C@H](C)N)C(=O)N[C@@H](CC(=O)O)C(=O)N[C@@H](CC(C)C)C(=O)N[C@@H](CC(C)C)C(=O)N[C@@H](Cc1ccccc1)C(=O)N1CCC[C@H]1C(=O)N[C@H](C(=O)N[C@@H](CC(=O)O)C(=O)N[C@H](C(=O)N[C@@H](CC(C)C)C(=O)N[C@@H](CC(C)C)C(=O)N[C@@H](CC(C)C)C(=O)N[C@@H](CC(=O)O)C(=O)N[C@@H](CC(C)C)C(=O)N[C@@H](CC(C)C)C(=O)N[C@@H](Cc1c[nH]c2ccccc12)C(=O)N[C@@H](CC(=O)O)C(=O)N[C@@H](C)C(=O)N[C@@H](CC(=O)O)C(=O)N[C@@H](CCC(=O)O)C(=O)N[C@@H](CSS[C@H](C)COC(=O)NCN1c2cc(F)cc3c(=O)[nH]nc(c23)[C@H](c2ncnn2C)[C@H]1c1ccc(F)cc1)C(=O)NCC(=O)O)[C@@H](C)O)[C@@H](C)O` [Example 41] are 43 nM and 1.9 nM.
Taken in the same sequence, the figures for `CC(C)C[C@H](NC(=O)[C@H](Cc1ccc(O)cc1)NC(=O)[C@H](C)NC(=O)[C@H](CCCNC(=N)N)NC(=O)[C@H](Cc1c[nH]c2ccccc12)NC(=O)[C@@H]1CCCN1C(=O)[C@H](CC(N)=O)NC(=O)[C@H](CCC(N)=O)NC(=O)[C@H](CC(=O)O)NC(=O)[C@H](CC(=O)O)NC(=O)[C@H](C)N)C(=O)N[C@@H](CC(=O)O)C(=O)N[C@@H](CC(C)C)C(=O)N[C@@H](CC(C)C)C(=O)N[C@@H](Cc1ccccc1)C(=O)N1CCC[C@H]1C(=O)N[C@H](C(=O)N[C@@H](CC(=O)O)C(=O)N[C@H](C(=O)N[C@@H](CC(C)C)C(=O)N[C@@H](CC(C)C)C(=O)N[C@@H](CC(C)C)C(=O)N[C@@H](CC(=O)O)C(=O)N[C@@H](CC(C)C)C(=O)N[C@@H](CC(C)C)C(=O)N[C@@H](Cc1c[nH]c2ccccc12)C(=O)N[C@@H](CSS[C@@H](C)COC(=O)NCN1c2cc(F)cc3c(=O)[nH]nc(c23)[C@H](c2ncnn2C)[C@H]1c1ccc(F)cc1)C(=O)NCC(=O)O)[C@@H](C)O)[C@@H](C)O` [Example 42] were 53 nM and 1.4 nM.

As usually defined, the IC50 is the concentration that gives 50% inhibition.

(Values after patent US12427157B2, “Methods for treatment of diseases involving acidic or hypoxic diseased tissues” (Cybrexa 1, Inc., priority 2018, dated 2025).)
